Assay results as given in ChEMBL document CHEMBL1201862, “PubChem BioAssay data set” (2004).
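Exposure lasted 48 hours, with cells grown in 96-well plates and compounds tested at five concentrations. Abbreviation: GI50, concentration required for 50% inhibition of growth.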 The source made the active and inactive calls. Cut-off read from the data, not from the text of the source: active = GI50 up to about 1.1 µM and inactive = higher.

What was measured:
Assay in all cases: NCI tumour cell line growth inhibition, 48 h
SN12C = test system: SN12C
SK-OV-3 = test system: SK-OV-3
A498 = test system: A498
SNB-75 = test system: SNB-75
SW-620 = test system: SW-620
EKVX = test system: EKVX
OVCAR-3 = test system: OVCAR-3
SF-295 = test system: SF-295
CAKI-1 = test system: CAKI-1
M14 = test system: M14
OVCAR-4 = test system: OVCAR-4
HCT-15 = test system: HCT-15
RPMI-8226 = test system: RPMI-8226
ACHN = test system: ACHN
NCI-H460 = test system: NCI-H460
786-0 = test system: 786-0
HOP-62 = test system: HOP-62
A549 = test system: A549
OVCAR-5 = test system: OVCAR-5
Malme-3M = test system: Malme-3M
SK-MEL-28 = test system: SK-MEL-28
DLD-1 = test system: DLD-1
IGROV-1 = test system: IGROV-1
RXF 631 = test system: RXF 631
DMS-114 = test system: DMS-114
NCI-H226 = test system: NCI-H226
UACC-62 = test system: UACC-62
TK-10 = test system: TK-10
KM12 = test system: KM12
SK-MEL-5 = test system: SK-MEL-5
SF-268 = test system: SF-268
LXFL 529 = test system: LXFL 529
UO-31 = test system: UO-31
SF-539 = test system: SF-539
HCC 2998 = test system: HCC 2998
UACC-257 = test system: UACC-257
LOX IMVI = test system: LOX IMVI
HT-29 = test system: HT-29
KM-20L2 = test system: KM-20L2
K562 = test system: K562
NCI-H23 = test system: NCI-H23
OVCAR-8 = test system: OVCAR-8
U-251 = test system: U-251
CCRF-CEM = test system: CCRF-CEM
XF498 = test system: XF498
SNB-19 = test system: SNB-19
MOLT-4 = test system: MOLT-4
NCI-H522 = test system: NCI-H522
COLO 205 = test system: COLO 205
DMS-273 = test system: DMS-273
HL-60 = test system: HL-60
HCT-116 = test system: HCT-116
SK-MEL-2 = test system: SK-MEL-2
RXF 393 = test system: RXF 393
HOP-18 = test system: HOP-18
M19-MEL = test system: M19-MEL
SNB-78 = test system: SNB-78
SR = test system: SR
HOP-92 = test system: HOP-92

In the case of `COc1ccc(/N=N/C(C(=O)c2ccccc2)C(=O)c2ccccc2)cc1`, the GI50 (SN12C) was 21 µM (inactive), the GI50 (SK-OV-3) was 45.9 µM (inactive) and the GI50 (A498) was 35.7 µM (inactive). For the same compound, the GI50 (SNB-75) was 20.6 µM (inactive), the GI50 (SW-620) was 19.3 µM (inactive) and the GI50 (EKVX) was 21.3 µM (inactive). The GI50 (OVCAR-3) was 17.2 µM (inactive), the GI50 (SF-295) was 21.3 µM (inactive) and the GI50 (CAKI-1) was 32.5 µM (inactive). The GI50 (M14) was 15.3 µM (inactive), the GI50 (OVCAR-4) was 30.8 µM (inactive) and the GI50 (HCT-15) was 15.1 µM. The GI50 (RPMI-8226) was 13.4 µM (inactive), the GI50 (ACHN) was 24.7 µM (inactive) and the GI50 (NCI-H460) was 18.6 µM (inactive). For the same compound, the GI50 (786-0) was 19.9 µM (inactive), the GI50 (HOP-62) was 23.3 µM (inactive) and the GI50 (A549) was 21.3 µM (inactive). For the same compound, the GI50 (OVCAR-5) was 33.8 µM (inactive), the GI50 (Malme-3M) was 24.9 µM (inactive) and the GI50 (SK-MEL-28) was 26.4 µM (inactive). For the same compound, the GI50 (DLD-1) was 23.9 µM (inactive), the GI50 (IGROV-1) was 34.7 µM (inactive) and the GI50 (RXF 631) was 31.4 µM (inactive). For the same compound, the GI50 (DMS-114) was 19.4 µM (inactive), the GI50 (NCI-H226) was 8.67 µM (inactive) and the GI50 (UACC-62) was 16 µM (inactive). For the same compound, the GI50 (TK-10) was 52 µM (inactive), the GI50 (KM12) was 27 µM (inactive) and the GI50 (SK-MEL-5) was 14.1 µM (inactive). The GI50 (SF-268) was 23.8 µM (inactive), the GI50 (LXFL 529) was 24.8 µM (inactive) and the GI50 (UO-31) was 16.9 µM (inactive). The GI50 (SF-539) was 25.4 µM (inactive), the GI50 (HCC 2998) was 44.7 µM (inactive) and the GI50 (UACC-257) was 24.5 µM (inactive). The GI50 (LOX IMVI) was 17.8 µM (inactive), the GI50 (HT-29) was 23 µM (inactive) and the GI50 (KM-20L2) was 27.2 µM (inactive). For the same compound, the GI50 (K562) was 19.1 µM (inactive), the GI50 (NCI-H23) was 18.3 µM (inactive) and the GI50 (OVCAR-8) was 22.4 µM (inactive). For the same compound, the GI50 (U-251) was 15.7 µM (inactive), the GI50 (CCRF-CEM) was 8 µM (inactive) and the GI50 (XF498) was 18.2 µM (inactive). For the same compound, the GI50 (SNB-19) was 17.7 µM (inactive), the GI50 (MOLT-4) was 14.7 µM (inactive) and the GI50 (NCI-H522) was 16.2 µM (inactive). For the same compound, the GI50 (COLO 205) was 42.1 µM (inactive), the GI50 (DMS-273) was 16.1 µM (inactive) and the GI50 (HL-60) was 10.4 µM (inactive). The GI50 (HCT-116) was 13.6 µM (inactive) and the GI50 (SK-MEL-2) was 21.9 µM (inactive).
In the case of `Cc1ccc(S(=O)(=O)O/N=C2\CCC\C2=C/c2ccccc2)cc1`, the GI50 (SN12C) was 45 µM (inactive), the GI50 (SK-OV-3) was 63.4 µM (inactive) and the GI50 (SNB-75) was 20.2 µM (inactive). The GI50 (RXF 393) was 20.3 µM (inactive), the GI50 (SW-620) was 29.6 µM (inactive) and the GI50 (EKVX) was 19.6 µM (inactive). For the same compound, the GI50 (OVCAR-3) was 18.5 µM (inactive), the GI50 (SF-295) was 22.8 µM (inactive) and the GI50 (CAKI-1) was 17.6 µM (inactive). The GI50 (M14) was 21.3 µM (inactive), the GI50 (OVCAR-4) was 23.3 µM (inactive) and the GI50 (HCT-15) was 22.9 µM. For the same compound, the GI50 (RPMI-8226) was 16 µM (inactive), the GI50 (ACHN) was 11.1 µM (inactive) and the GI50 (NCI-H460) was 19.5 µM (inactive). The GI50 (786-0) was 25.4 µM (inactive), the GI50 (HOP-62) was 36.6 µM (inactive) and the GI50 (A549) was 29.4 µM (inactive). For the same compound, the GI50 (OVCAR-5) was 23 µM (inactive), the GI50 (HOP-18) was 20.3 µM (inactive) and the GI50 (SK-MEL-28) was 11.1 µM (inactive). For the same compound, the GI50 (DLD-1) was 19.1 µM (inactive), the GI50 (IGROV-1) was 26.2 µM (inactive) and the GI50 (RXF 631) was 16.9 µM (inactive). The GI50 (M19-MEL) was 20.1 µM (inactive), the GI50 (NCI-H226) was 18.5 µM (inactive) and the GI50 (UACC-62) was 8.45 µM (inactive). For the same compound, the GI50 (TK-10) was 16.6 µM (inactive), the GI50 (KM12) was 17.6 µM (inactive) and the GI50 (SK-MEL-5) was 14.8 µM (inactive). For the same compound, the GI50 (SF-268) was 8.87 µM (inactive), the GI50 (LXFL 529) was 16.6 µM (inactive) and the GI50 (UO-31) was 19.9 µM (inactive). For the same compound, the GI50 (SF-539) was 19.9 µM (inactive), the GI50 (HCC 2998) was 17.7 µM (inactive) and the GI50 (UACC-257) was 17.1 µM (inactive). The GI50 (LOX IMVI) was 25.9 µM (inactive), the GI50 (SNB-78) was 1.31 µM (inactive) and the GI50 (SR) was 16.4 µM (inactive). The GI50 (HT-29) was 25.3 µM (inactive), the GI50 (KM-20L2) was 22.1 µM (inactive) and the GI50 (K562) was 26.7 µM (inactive). The GI50 (NCI-H23) was 19.4 µM (inactive), the GI50 (OVCAR-8) was 29 µM (inactive) and the GI50 (U-251) was 31.6 µM (inactive). The GI50 (CCRF-CEM) was 58.6 µM (inactive), the GI50 (XF498) was 18.5 µM (inactive) and the GI50 (SNB-19) was 30.5 µM (inactive). The GI50 (MOLT-4) was 13 µM (inactive), the GI50 (NCI-H522) was 18.9 µM (inactive) and the GI50 (COLO 205) was 16.3 µM (inactive). For the same compound, the GI50 (DMS-273) was 32.8 µM (inactive), the GI50 (HOP-92) was 15.7 µM (inactive) and the GI50 (HL-60) was 6.82 µM (inactive). For the same compound, the GI50 (HCT-116) was 12.4 µM (inactive) and the GI50 (SK-MEL-2) was 16.9 µM (inactive).
In the case of `CCC1(CN(C)C)CC/C(=C\c2ccc(OC)cc2)C1=O` (centres undefined), the GI50 (SN12C) was > 100 µM (inactive), the GI50 (A498) was 84.1 µM (inactive) and the GI50 (SNB-75) was > 100 µM (inactive). The GI50 (RXF 393) was > 100 µM (inactive), the GI50 (SW-620) was > 100 µM (inactive) and the GI50 (EKVX) was > 100 µM (inactive). The GI50 (OVCAR-3) was > 100 µM (inactive), the GI50 (SF-295) was > 100 µM (inactive) and the GI50 (CAKI-1) was > 100 µM (inactive). For the same compound, the GI50 (M14) was > 100 µM (inactive), the GI50 (OVCAR-4) was > 100 µM (inactive) and the GI50 (HCT-15) was 23.5 µM. For the same compound, the GI50 (RPMI-8226) was 17.4 µM (inactive), the GI50 (ACHN) was > 100 µM (inactive) and the GI50 (NCI-H460) was > 100 µM (inactive). The GI50 (786-0) was > 100 µM (inactive), the GI50 (HOP-62) was > 100 µM (inactive) and the GI50 (A549) was > 100 µM (inactive). For the same compound, the GI50 (OVCAR-5) was > 100 µM (inactive), the GI50 (HOP-18) was > 100 µM (inactive) and the GI50 (Malme-3M) was > 100 µM (inactive). The GI50 (SK-MEL-28) was > 100 µM (inactive), the GI50 (DLD-1) was 58.3 µM (inactive) and the GI50 (IGROV-1) was > 100 µM (inactive). For the same compound, the GI50 (RXF 631) was 62.7 µM (inactive), the GI50 (DMS-114) was 54.1 µM (inactive) and the GI50 (M19-MEL) was > 100 µM (inactive). The GI50 (NCI-H226) was > 100 µM (inactive), the GI50 (UACC-62) was > 100 µM (inactive) and the GI50 (TK-10) was > 100 µM (inactive). For the same compound, the GI50 (KM12) was > 100 µM (inactive), the GI50 (SK-MEL-5) was 58.6 µM (inactive) and the GI50 (SF-268) was > 100 µM (inactive). The GI50 (LXFL 529) was 94 µM (inactive), the GI50 (UO-31) was > 100 µM (inactive) and the GI50 (SF-539) was > 100 µM (inactive). For the same compound, the GI50 (HCC 2998) was > 100 µM (inactive), the GI50 (UACC-257) was 89.3 µM (inactive) and the GI50 (LOX IMVI) was > 100 µM (inactive). The GI50 (SNB-78) was > 100 µM (inactive), the GI50 (HT-29) was 44.9 µM (inactive) and the GI50 (KM-20L2) was > 100 µM (inactive). For the same compound, the GI50 (K562) was 40.9 µM (inactive), the GI50 (NCI-H23) was > 100 µM (inactive) and the GI50 (OVCAR-8) was > 100 µM (inactive). The GI50 (U-251) was > 100 µM (inactive), the GI50 (CCRF-CEM) was 30 µM (inactive) and the GI50 (SNB-19) was > 100 µM (inactive). For the same compound, the GI50 (MOLT-4) was 3.14 µM (inactive), the GI50 (NCI-H522) was 31.5 µM (inactive) and the GI50 (COLO 205) was 80.7 µM (inactive). For the same compound, the GI50 (DMS-273) was > 100 µM (inactive), the GI50 (HOP-92) was > 100 µM (inactive) and the GI50 (HCT-116) was 93.1 µM (inactive). For the same compound, the GI50 (SK-MEL-2) was > 100 µM (inactive).
